Where two headings read alike, the source gives them in different places.
Tests used:
Format in all cases: cell-based
S. aureus 6538 = assay: Synergy test, microtiter plate high resolution MIC assay, bacterium; details: S. aureus 6538, TSB
Excerpt: (§1) One measure of synergism is the industrially accepted method described by Kull, F. C.; Eisman, P. C.; Sylwestrowicz, H. D. and Mayer, R. L., in Applied Microbiology 9:538-541 (1961), using the ratio determined by the formula: Qa/QA+Qb/QB=Synergy Index (“SI”) wherein: • QA=concentration of compound A (first component) in ppm, acting alone, which produced an end point (MIC of Compound A). • Qa=concentration of compound A in ppm, in the mixture, which produced an end point. • QB=concentration of compound B (second component) in ppm, acting alone, which produced an end point (MIC of Compound B). • Qb=concentration of compound B in ppm, in the mixture, which produced an end point.
(§2) When the sum of Qa/QA and Qb/QB is greater than one, antagonism is indicated. […] The lower the SI, the greater the synergy shown by that particular mixture. The minimum inhibitory concentration (MIC) of a microbicide is the lowest concentration tested under a specific set of conditions that prevents the growth of added microorganisms.
(§3) Synergy tests were conducted using standard microtiter plate assays with media designed for optimal growth of the test microorganism. Soybean Casein Digest Broth (Tryptic Soy Broth, TSB medium) or minimal salt medium supplemented with 0.2% glucose and 0.1% yeast extract (M9GY medium) was used for testing bacteria; Potato Dextrose Broth (PDB medium) was used for testing yeast and mold. In this method, a wide range of combinations of microbicides was tested by conducting high resolution MIC assays in the presence of various concentrations of MI. High resolution MICs were determined by adding varying amounts of microbicide to one column of a microtitre plate and doing subsequent ten-fold dilutions using an automated liquid handling system to obtain a series of endpoints ranging from 2 ppm to 10,000 ppm active ingredient.

[1] = test system: Pseudomonas aeruginosa (P. aeruginosa—ATCC #15442); assay: as above; design: key to SI (calculated synergy index) / SI (synergy index): SI = Qa/QA + Qb/QB (mixture vs. alone end-point concentrations); details: for SI (calculated synergy index) / Qb: end-point activity (MIC) of second component in the mixture (alone, QB, where Qa = 0): Table 5; for Qb: end-point activity (MIC) of second component in the mixture (alone, QB, where Qa = 0): B = Linoleamidopropyl PG-dimonium chloride phosphate; for MIC: Pseudomonas aeruginosa, ATCC15442; for Qb: alone or mixed with BIT
Excerpt: as §1, §2, §3
(§4) For MI combinations, the synergy of the combinations of the present invention was determined against two bacteria, Escherichia coli (E. coli—ATCC #8739) or Pseudomonas aeruginosa (P. aeruginosa—ATCC #15442), a yeast, Candida albicans (C. albicans—ATCC 10231), and a mold, Aspergillus niger (A. niger—ATCC 16404). The bacteria were used at a concentration of about 5×10^6 bacteria per mL and the yeast and mold at 5×10^5 fungi per mL. These microorganisms are representative of natural contaminants in many consumer and industrial applications. […] (bacteria).
(§5) For BIT combinations, the synergy of the combinations of the present invention was determined against a bacterium, Pseudomonas aeruginosa (P. aeruginosa—ATCC #15442), a yeast, Candida albicans (C. albicans—ATCC 10231), and a mold, Aspergillus niger (A. niger—ATCC 16404). The bacteria were used at a concentration of about 5×10^6 bacteria per mL and the yeast and mold at 5×10^5 fungi per mL. These microorganisms are representative of natural contaminants in many consumer and industrial applications. […] (yeast and mold) or 30° C. (bacteria).

[2] = test system: Aspergillus niger (A. niger—ATCC 16404); assay: Synergy test, microtiter plate high resolution MIC assay, mold; design: key to SI (calculated synergy index) / SI (synergy index): SI = Qa/QA + Qb/QB (mixture vs. alone end-point concentrations); details: A. niger 16404, PDB; for MIC: Aspergillus niger
Excerpt: as §1, §2, §3, §4, §5

[3] = test system: Candida albicans (C. albicans—ATCC 10231); assay: Synergy test, microtiter plate high resolution MIC assay, yeast; details: C. albicans 10231, PDB; for MIC: Candida albicans, ATCC10231; for Qb: alone or mixed with BIT
Excerpt: as §1, §2, §3, §4, §5

[4] = test system: Escherichia coli (E. coli—ATCC #8739); assay: Synergy test, microtiter plate high resolution MIC assay, bacterium; details: E. coli 8739, M9GY; for Qb: alone or mixed with BIT
Excerpt: as §1, §2
as §3, with “In this method, a wide range of combinations of microbicides was tested by conducting high resolution MIC assays in the presence of various concentrations of MI.” left out
as §4

[5] = P. aeruginosa 15442, M9GY, 48 hours
[6] = P. aeruginosa 15442, TSB, 48 hours
[7] = glutaraldehyde concentration giving end point (MIC), 24 hours
[8] = synergy index BIT + glutaraldehyde, 24 hours
[9] = Table 25, sodium dehydroacetic acid with BIT, 24 hours, alone where Qa = 0

## Linoleamidopropyl PG-dimonium chloride phosphate
S. aureus 6538; Table 5, 48 hours
  SI (calculated synergy index): 1.00
S. aureus 6538; Table 5, 48 hours, B = Linoleamidopropyl PG-dimonium chloride phosphate
  Qb: end-point activity (MIC) of second component in the mixture (alone, QB, where Qa = 0): 40 ppm
[1]; [5]
  SI (calculated synergy index): 1.00
  Qb: end-point activity (MIC) of second component in the mixture (alone, QB, where Qa = 0): 10000 ppm
[1]; [6]
  SI (calculated synergy index): 1.00
  Qb: end-point activity (MIC) of second component in the mixture (alone, QB, where Qa = 0): 10000 ppm
[1]; Table 21, Linoleamidopropyl PG-dimonium chloride phosphate with BIT, P. aeruginosa 15442, M9GY, 48 hours, alone where Qa = 0
  Qb (second component at end point, MIC): 10000 ppm
[1]; Table 21, P. aeruginosa 15442, M9GY, 48 hours
  SI (synergy index): 1.00
[2]; Table 5, 7 days
  SI (calculated synergy index): 1.00
[2]; Table 5, 7 days, B = Linoleamidopropyl PG-dimonium chloride phosphate
  Qb: end-point activity (MIC) of second component in the mixture (alone, QB, where Qa = 0): 6000 ppm
[2]; Table 21, 4 days
  SI (synergy index): 1.00
[2]; Table 21, Linoleamidopropyl PG-dimonium chloride phosphate with BIT, 4 days, alone where Qa = 0
  Qb (second component at end point, MIC): 3000 ppm
[3]; Table 5, 24 hours
  SI (calculated synergy index): 1.00
[3]; Table 5, 24 hours, B = Linoleamidopropyl PG-dimonium chloride phosphate
  Qb: end-point activity (MIC) of second component in the mixture (alone, QB, where Qa = 0): 8000 ppm

## Cl/C=C\C[N+]12CN3CN(CN(C3)C1)C2.[Cl-] [cis-1-(3-chloroallyl)-3,5,7-triaza-1-azoniaadamantane chloride]
[1]; Table 24, Cis-1-(3-chloroallyl)-3,5,7-triaza-1-azoniaadamantane chloride with BIT, P. aeruginosa 15442, M9GY, 24 hours, alone where Qa = 0, read-out: Qb (second component at end point, MIC)
  MIC: 400 µg/mL
[1]; Table 24, P. aeruginosa 15442, M9GY, 24 hours
  SI (synergy index): 1.00
[2]; ATCC16404, 72 h, Table 24, Cis-1-(3-chloroallyl)-3,5,7-triaza-1-azoniaadamantane chloride with BIT, 3 days, alone where Qa = 0, read-out: Qb (second component at end point, MIC)
  MIC: 800 µg/mL
[2]; Table 24, 3 days
  SI (synergy index): 1.00
[4]; Escherichia coli, ATCC8739, Table 24, Cis-1-(3-chloroallyl)-3,5,7-triaza-1-azoniaadamantane chloride with BIT, 48 hours, alone where Qa = 0, read-out: Qb (second component at end point, MIC)
  MIC: 400 µg/mL
[4]; Table 24, 48 hours
  SI (synergy index): 1.00
[3]; Table 24, Cis-1-(3-chloroallyl)-3,5,7-triaza-1-azoniaadamantane chloride with BIT, 24 hours, alone where Qa = 0, read-out: Qb (second component at end point, MIC)
  MIC: 800 µg/mL
[3]; Table 24, 24 hours
  SI (synergy index): 1.00

## N=C(N)c1ccc(OCCCCCCOc2ccc(C(=N)N)cc2)cc1.O=S(=O)(O)CCO.O=S(=O)(O)CCO [Hexamidine diisethionate]
S. aureus 6538; 72 hours
  MIC of component acting alone (QA / QB): 4000 ppm
[1]; P. aeruginosa 15442, TSB, 72 hours
  MIC of component acting alone (QA / QB): 2000 ppm
[3]; 48 hours
  MIC of component acting alone (QA / QB): 2000 ppm

## OCc1ccccc1 [Benzyl alcohol]
[1]; benzyl alcohol concentration giving end point (MIC), P. aeruginosa 15442, M9GY, 48 hours
  Qb: 200 ppm
[1]; synergy index BIT + benzyl alcohol, P. aeruginosa 15442, M9GY, 48 hours
  SI: 1.00
[2]; ATCC16404, 168 h, benzyl alcohol concentration giving end point (MIC), alone or mixed with BIT, 1 week, read-out: Qb
  MIC: 5000 µg/mL
[2]; synergy index BIT + benzyl alcohol, 1 week
  SI: 1.00
[4]; benzyl alcohol concentration giving end point (MIC), 24 hours
  Qb: 4000 ppm
[4]; synergy index BIT + benzyl alcohol, 24 hours
  SI: 1.00
[3]; benzyl alcohol concentration giving end point (MIC), 48 hours
  Qb: 4000 ppm
[3]; synergy index BIT + benzyl alcohol, 48 hours
  SI: 1.00

## O=CCCCC=O [glutaraldehyde]
[1]; glutaraldehyde concentration giving end point (MIC), P. aeruginosa 15442, M9GY, 48 hours
  Qb: 60 ppm
[1]; synergy index BIT + glutaraldehyde, P. aeruginosa 15442, M9GY, 48 hours
  SI: 1.00
[2]; ATCC16404, 72 h, glutaraldehyde concentration giving end point (MIC), alone or mixed with BIT, 3 days, read-out: Qb
  MIC: 400 µg/mL
[2]; synergy index BIT + glutaraldehyde, 3 days
  SI: 1.00
[4]; [7]
  Qb: 50 ppm
[4]; [8]
  SI: 1.00
[3]; [7]
  Qb: 30 ppm
[3]; [8]
  SI: 1.00

## CCCCC(CC)CN1CN(CC(CC)CCCC)CC(C)(N)C1 (stereo not shown) [Hexetidine]
S. aureus 6538; Staphylococcus aureus, 48 hours, read-out: MIC of component acting alone (QA / QB)
  MIC: 4 µg/mL
[1]; P. aeruginosa 15442, TSB, 24 hours, read-out: MIC of component acting alone (QA / QB)
  MIC: 10000 µg/mL
[3]; 72 hours, read-out: MIC of component acting alone (QA / QB)
  MIC: 2000 µg/mL

## O=C([O-])c1ccccc1.[Na+] [sodium benzoate]
[1]; Table 26, P. aeruginosa 15442, M9GY, 24 hours
  SI (synergy index): 1.00
[1]; Table 26, sodium benzoate with BIT, P. aeruginosa 15442, M9GY, 24 hours, alone where Qa = 0
  Qb (second component at end point, MIC): 10000 ppm
[2]; Table 26, 1 week
  SI (synergy index): 1.00
[2]; Table 26, sodium benzoate with BIT, 1 week, alone where Qa = 0
  Qb (second component at end point, MIC): 6000 ppm
[4]; Table 26, 24 hours
  SI (synergy index): 1.00
[4]; Table 26, sodium benzoate with BIT, 24 hours, alone where Qa = 0
  Qb (second component at end point, MIC): 10000 ppm
[3]; Table 26, 48 hours
  SI (synergy index): 1.00
[3]; Table 26, sodium benzoate with BIT, 48 hours, alone where Qa = 0
  Qb (second component at end point, MIC): 2000 ppm

## CC(=O)c1c([O-])cc(C)oc1=O.[Na+] [Sodium dehydroacetic acid]
[1]; [5]
  MIC of component acting alone (QA / QB): 10000 ppm
[1]; Table 25, P. aeruginosa 15442, M9GY, 24 hours
  SI (synergy index): 1.00
[1]; Table 25, sodium dehydroacetic acid with BIT, P. aeruginosa 15442, M9GY, 24 hours, alone where Qa = 0
  Qb (second component at end point, MIC): 10000 ppm
[2]; 4 days
  MIC of component acting alone (QA / QB): 80 ppm
[2]; Table 25, 1 week
  SI (synergy index): 1.00
[2]; Table 25, sodium dehydroacetic acid with BIT, 1 week, alone where Qa = 0
  Qb (second component at end point, MIC): 200 ppm
[4]; 24 hours
  MIC of component acting alone (QA / QB): 10000 ppm
[4]; Table 25, 24 hours
  SI (synergy index): 1.00
[4]; [9]
  Qb (second component at end point, MIC): 10000 ppm
[3]; 24 hours
  MIC of component acting alone (QA / QB): 40 ppm
[3]; Table 25, 24 hours
  SI (synergy index): 1.00
[3]; [9]
  Qb (second component at end point, MIC): 30 ppm

From patent US7468384B2, “Microbicidal composition” (Rohm and Haas Company, priority 2004, dated 2008)
